{
  "source": "patent US20170281642A1",
  "about": "“METHODS OF TREATING ACUTE MYELOID LEUKEMIA OR ACUTE LYMPHOID LEUKEMIA USING PHARMACEUTICAL COMPOSITIONS CONTAINING THIENOTRIAZOLODIAZEPINE COMPOUNDS” (ONCOETHIX GmbH, priority 2014, published 2017)",
  "key": {"AML and ALL cell lines [1]": {"system": "AML and ALL cell lines", "experiment": "apoptosis by Annexin V staining and PI uptake", "type": "cell-based", "conditions": "72 h; for apoptotic cells: 500 nM", "procedure": "(§1) At 500 nM compound (1-1), 30-90% of cells were apoptotic in five of nine AML cell lines (HEL, NB4, NOMO-1, OCI-AML3, KASUMI) and 50-90% in two of four ALL cell lines (JURKAT and RS4-11; FIG. 14C)."}, "HEXIM1": {"system": "HEXIM1", "experiment": "HEXIM1 mRNA and protein expression in acute leukemia cell lines", "type": "cell-based"}, "c-MYC [2]": {"system": "c-MYC", "experiment": "c-MYC mRNA (quantitative RT-PCR) and protein (Western blotting) expression in acute leukemia cell lines", "type": "cell-based", "conditions": "500 nM"}, "[3]": {"system": "nine AML and four ALL cell lines", "experiment": "cell viability, MTT assay", "type": "cell-based", "procedure": "Cellular effects of compound (1-1) in various acute leukemia subtypes were evaluated. Cell viability after compound (1-1) exposure was evaluated with the MTT assay in nine AML and four ALL cell lines. Significant growth inhibition, defined as submicromolar IC50, was found in six of nine AML cell lines and all four ALL cell lines tested. The K562, KG1a and HL60 AML cell lines were resistant to compound (1-1)."}, "c-MYC [4]": {"system": "c-MYC", "experiment": "ex vivo c-MYC mRNA and protein expression in patient samples", "type": "cell-based, human", "conditions": "500 nM", "procedure": "(§2) Apoptosis, mRNA and protein expression were evaluated in BM mononuclear cells obtained from representative newly diagnosed or relapsed ALL and AML patients, see Table 7, treated in the context of an ongoing Phase Ib study with compound (1-1) and for whom sufficient material for analysis was available. Apoptosis induction by exposure to 500 nM compound (1-1) for 72 h was variable among the patient samples tested (FIG. 15A)."}, "[5]": {"system": "BM mononuclear cells from ALL and AML patients", "experiment": "ex vivo apoptosis in BM mononuclear cells of ALL and AML patients", "type": "cell-based, human", "conditions": "500 nM, 72 h", "procedure": "as §2"}, "BRD2/3/4": {"system": "BRD2/3/4", "experiment": "BRD2/3/4 expression in acute leukemia cell lines", "type": "cell-based", "conditions": "500 nM, 48 h"}, "BRD2 [6]": {"system": "BRD2", "experiment": "BRD2 protein expression in acute leukemia cell lines", "type": "cell-based", "conditions": "500 nM; most cell lines (OCI-AML3, JURKAT, RS4-11, NB4, NOMO-1, HL60)"}, "BRD3": {"system": "BRD3", "experiment": "BRD3 protein levels in acute leukemia cell lines", "type": "cell-based", "conditions": "500 nM; all cell lines evaluated"}, "BRD4": {"system": "BRD4", "experiment": "BRD4 protein expression in acute leukemia cell lines", "type": "cell-based", "conditions": "500 nM; only OCI-AML3, NB4 and K562 cell lines"}, "[7]": {"system": "caspase-3 and cytochrome c", "experiment": "caspase-3 activation and cytochrome c release in cell lines", "type": "cell-based", "conditions": "500 nM, 72 h", "procedure": "as §1"}, "BRD2 [8]": {"system": "BRD2", "experiment": "ex vivo BRD2 protein expression in primary AML samples", "type": "cell-based, human", "conditions": "500 nM, 72 h; three primary AML samples"}, "AML and ALL cell lines [9]": {"system": "AML and ALL cell lines", "experiment": "cell cycle analysis", "type": "cell-based", "conditions": "500 nM, 48 h"}, "[10]": {"system": "caspase-3 and cytochrome c", "experiment": "ex vivo caspase-3 activation and mitochondrial cytochrome c release in AML patient samples", "type": "cell-based, human", "conditions": "samples from three AML patients", "procedure": "as §2"}},
  "note": "Entries after “also recorded” stand apart in the source; their conditions may differ.",
  "data": [
    {"compound": "Cc1sc2c(c1C)C(c1ccc(Cl)cc1)=N[C@@H](CC(=O)Nc1ccc(O)cc1)c1nnc(C)n1-2", "note": "[compound (1-1), 2-[(6S)-4-(4-chlorophenyl)-2,3,9-trimethyl-6H-thienol[3,2-f]-[1,2,4]triazolo[4,3-a][1,4]diazepin-6-yl]-N-(4-hydroxyphenyl)acetamide dihydrate]", "values": [
      {"measurement": "apoptotic cells", "setting": "AML and ALL cell lines [1]; five of nine AML cell lines (HEL, NB4, NOMO-1, OCI-AML3, KASUMI)", "result": "30-90%"},
      {"measurement": "apoptotic cells", "setting": "AML and ALL cell lines [1]; two of four ALL cell lines (JURKAT and RS4-11)", "result": "50-90%"},
      {"measurement": "apoptosis (Annexin V staining and PI uptake)", "setting": "AML and ALL cell lines [1]; 25 to 500 nM", "result": "significant apoptosis"},
      {"measurement": "HEXIM1 mRNA expression", "setting": "HEXIM1; 500 nM, 4 and 24 h, K562, HL-60, NB4, NOMO-1, KG1, OCI-AML3, JURKAT, RS4-11", "result": "increased"},
      {"measurement": "HEXIM1 protein levels", "setting": "HEXIM1; 500 nM, 24-72 h, OCI-AML3, JURKAT and RS4-11 cell lines, dihydrate", "result": "Increases"},
      {"measurement": "HEXIM1 mRNA expression", "setting": "HEXIM1; 500 nM, 24 h, all cell lines except K562", "result": "increased"},
      {"measurement": "HEXIM1 mRNA expression, increase", "setting": "HEXIM1; 500 nM, 24 h, compound (1-1) resistant K562 cells", "result": "insignificant (less than twice)"},
      {"measurement": "HEXIM1 upregulation, rank among cell lines", "setting": "HEXIM1; OCI-AML3 and RS4-11 cell lines", "result": "highest"},
      {"measurement": "c-MYC protein levels", "setting": "c-MYC [2]; 24-72 h, all cell lines evaluated other than KG1 (OCI-AML3, K562, NB4, NOMO-1, HL60, JURKAT, RS4-11), dihydrate", "result": "decreased to a variable extent; also recorded: Decreases"},
      {"measurement": "c-MYC gene expression", "setting": "c-MYC [2]; 4 h and 24 h, same cell lines and KG1", "result": "decreased ubiquitously"},
      {"measurement": "c-MYC RNA levels", "setting": "c-MYC [2]; 24 h, all AML and ALL cell lines (K562, HL-60, NB4, NOMO-1, KG1, OCI-AML3, JURKAT, RS4-11)", "result": "ubiquitously downregulated"},
      {"measurement": "sensitivity to compound (1-1), MTT", "setting": "[3]; K562, KG1a and HL60 AML cell lines", "result": "resistant"},
      {"measurement": "IC50 (growth inhibition, MTT)", "setting": "[3]; six of nine AML cell lines and all four ALL cell lines", "result": "submicromolar"},
      {"measurement": "c-MYC mRNA expression", "setting": "c-MYC [4]; 48 h, seven AML samples and two ALL samples", "result": "downregulated"},
      {"measurement": "c-MYC protein expression", "setting": "c-MYC [4]; 72 h, three primary AML samples", "result": "clearly decreased"},
      {"measurement": "apoptosis", "setting": "[5]; 6 of 14 AML patients (4, 8, 9, 14, 16, 18)", "result": "no or a mild increase"},
      {"measurement": "increased apoptosis compared to control-treated cells", "setting": "[5]; BM cells from 8 of 14 AML patients (3, 15, 17, 26, 27, 28, 31, 38)", "result": "35-90%"},
      {"measurement": "apoptosis", "setting": "[5]; two ALL patients (40 and 43)", "result": "no or a mild increase"},
      {"measurement": "BRD2, BRD3 and BRD4 mRNA expression", "setting": "BRD2/3/4; HL60 and NOMO-1 cells", "result": "increased"},
      {"measurement": "BRD2, BRD3 and BRD4 mRNA expression", "setting": "BRD2/3/4; K562 and NB4 cell lines", "result": "dramatically decreased"},
      {"measurement": "BRD2, BRD3 and BRD4 mRNA expression", "setting": "BRD2/3/4; K562 cells", "result": "significantly decreased"},
      {"measurement": "BRD2, BRD3 and BRD4 mRNA expression", "setting": "BRD2/3/4; KG1, OCI-AML3, JURKAT, BV-173 and RS4-11", "result": "mild variations"},
      {"measurement": "BRD2, BRD3 and BRD4 mRNA expression", "setting": "BRD2/3/4; other cell lines (Example 7)", "result": "minimal to no increases"},
      {"measurement": "BRD2 protein expression", "setting": "BRD2 [6]", "result": "decrease"},
      {"measurement": "BRD3 protein levels", "setting": "BRD3", "result": "unmodified"},
      {"measurement": "BRD4 protein expression", "setting": "BRD4", "result": "decreased"},
      {"measurement": "caspase-3 activation", "setting": "[7]", "result": "activated"},
      {"measurement": "cytochrome c release", "setting": "[7]", "result": "induced"},
      {"measurement": "BRD2 protein expression", "setting": "BRD2 [8]", "result": "clearly decreased"},
      {"measurement": "cells in the sub-G1 phase", "setting": "AML and ALL cell lines [9]; KG1a, KG1, HEL, KASUMI and JURKAT", "result": "significant increase"},
      {"measurement": "transition from G1 to S-phase", "setting": "AML and ALL cell lines [9]; all 13 cell lines", "result": "decreased"},
      {"measurement": "activation of caspase-3", "setting": "[10]", "result": "induced activation"},
      {"measurement": "mitochondrial cytochrome c release", "setting": "[10]", "result": "induced"}
    ]}
  ]
}
